Experimental data reported in publication PMC2885805 (Pesticide biochemistry and physiology, 2010).

Key:
[1] = system: non-desensitizing GluCl (cockroach neurons); experiment: whole-cell patch clamp, glutamate-induced chloride current; format: cell-based, Periplaneta americana; details: cited from earlier work
[2] = system: desensitizing GluCl (cockroach neurons); experiment: as above; format: cell-based, Periplaneta americana; details: 30 μM picrotoxinin; desensitizing component
[3] = system: cockroach GABA receptor; experiment: whole-cell patch clamp, GABA-induced chloride current; format: cell-based, Periplaneta americana; details: resting receptor; holding potential −60 mV, symmetric chloride; cited from earlier work
[4] = system: rat GABAA receptor; experiment: as above; format: cell-based; details: closed channel; rat dorsal root ganglion neurons; cited from earlier work
[5] = system: desensitizing GluCl (cockroach neurons); experiment: whole-cell patch clamp, glutamate-induced chloride current; format: cell-based, Periplaneta americana; details: peak current measured; cited from earlier work

| Compound | IC50 ([1]; non-desensitizing component) [nM] | % inhibition at 30 μM [2] [%] | IC50 [3] [nM] | IC50 ([1]; steady-state current measured, use-dependent open-channel block) [nM] | IC50 [4] [nM] | IC50 [5] [nM] |
| --- | --- | --- | --- | --- | --- | --- |
| C=C(C)[C@@H]1[C@H]2OC(=O)[C@@H]1[C@]1(O)C[C@H]3O[C@]34C(=O)O[C@H]2[C@]14C [picrotoxinin] | 4100 ± 1000 | 8.2 ± 2.9 | – | – | – | – |
| N#Cc1nn(-c2c(Cl)cc(C(F)(F)F)cc2Cl)c(N)c1[S+]([O-])C(F)(F)F (stereo not drawn) [fipronil] | – | – | 28 | 10 ± 0.9 | 1660 | 801 ± 207 |
